The text below walks through data of article PMC10503797, “Allosteric modulator potentiates β2AR agonist–promoted bronchoprotection in asthma models” (The Journal of Clinical Investigation, 2023).

The test system of one data set is guinea pig lung slices. Kind of data set: Methacholine-induced airway constriction in guinea pig lung slices. It counts as cell-based. Set-up: key to MCh-induced airway constriction response (Figure 5D): % of initial (baseline) airway luminal area. The settings on record: for MCh-induced airway constriction response (Figure 5D): 10 µM Fenoterol + 25 µM Cmp6, Exp1-6. The method, then:
All curve fits were generated using the software program GraphPad Prism. Data are represented as mean ± SEM obtained from 6 guinea pigs.
(§1) Precision-cut lung slices were prepared as described previously ([61], [62]). A 3% solution of low melting-point agarose (Gerbu Biotechnik GmbH) in ultrapure water was prepared by heating it a microwave until fully dissolved. […] After filling, the lungs were covered with ice for 30 minutes to solidify the agarose for slicing. […] Lung slices were cut at a thickness of 500 μm and washed several times with slicing buffer to remove debris and washout the isoproterenol. Slices were incubated overnight in a 60 mm dish in sterile incubation buffer: MEM composed of lung slice buffer supplemented with 0.5 mM sodium pyruvate, 1 mM glutamine (Gibco), MEM-amino acids mixture (1:50), MEM-vitamins mixture (1:100; Gibco), and penicillin-streptomycin (1:100; Gibco), pH = 7.2, at 37°C in a CO2- and humidity-controlled atmosphere.
(§2) After washing the slices in medium, individual guinea pig lung slices were mechanically maintained with a Teflon ring with an inner diameter of 7 mm and covered with 1 mL of incubation buffer. […] Image acquisition software (NIS-Elements, Nikon) was used to quantify airway luminal area. Images of the airways were acquired every 2 seconds during the whole course of the experiment, starting 2 minutes before the addition of any agent to allow for baseline measurements of the airway caliber. For each methacholine or ovalbumin concentration, the maximal airway constriction was expressed as percentage of the initial (baseline) airway luminal area and plotted against that concentration.

Another data set deals with WT murine β2AR (Mus musculus, UniProt P18762). In words: 125I-CYP radioligand competition binding, WT murine β2AR. The following applies: WT DMSO. (In general: Displacement assays read how much labelled ligand stays bound in the presence of the test substance.)
Chain of WT murine β2AR (P18762 whole entry): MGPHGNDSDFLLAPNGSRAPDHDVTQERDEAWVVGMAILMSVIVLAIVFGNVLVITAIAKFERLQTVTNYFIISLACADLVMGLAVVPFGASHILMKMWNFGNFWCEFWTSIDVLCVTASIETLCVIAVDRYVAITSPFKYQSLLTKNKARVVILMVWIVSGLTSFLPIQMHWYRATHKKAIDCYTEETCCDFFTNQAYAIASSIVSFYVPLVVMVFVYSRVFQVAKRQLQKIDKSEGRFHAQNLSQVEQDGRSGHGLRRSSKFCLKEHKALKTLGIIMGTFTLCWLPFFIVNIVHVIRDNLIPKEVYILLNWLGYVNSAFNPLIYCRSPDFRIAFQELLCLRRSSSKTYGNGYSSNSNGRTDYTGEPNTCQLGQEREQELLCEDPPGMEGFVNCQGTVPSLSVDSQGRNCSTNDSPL
The next data set addresses guinea pig β2AR (Cavia porcellus, UniProt Q8K4Z4). In words: 125I-CYP radioligand competition binding, guinea pig β2AR. The settings on record: DMSO.
The target in another data set is V133F mutant murine β2AR (Mus musculus, UniProt P18762, V133F). Kind of data set: 125I-CYP radioligand competition binding, V133F mutant murine β2AR. The settings on record: V133F DMSO.
Chain of V133F mutant murine β2AR (P18762 whole entry V133F): as the sequence (P18762 whole entry) above, with V133F counted along it
Data set [1] concerns lung slices obtained from ovalbumin-sensitized guinea pigs. Kind of data set: Ovalbumin-induced airway constriction in lung slices from ovalbumin-sensitized guinea pigs. It counts as cell-based, guinea pig. The settings on record: ovalbumin-sensitized guinea pigs; no treatment.
Excerpt: All curve fits were generated using the software program GraphPad Prism. Data are represented as mean ± SEM of 4–5 guinea pigs (see Table 2 for statistical analyses).
Outbred, male, specified pathogen-free Dunkin Hartley guinea pigs (Charles River Laboratory) weighing 200 to 400 g were used. The animals were housed in pairs under a 12-hour light/dark cycle in a temperature- and humidity-controlled room with food and tap water ad libitum. For studies in the guinea pig model of allergic asthma, animals were actively IgE-sensitized to ovalbumin by injecting a suspension containing 100 μg/mL ovalbumin and 100 mg/mL Al(OH)3 in saline. Each animal was injected with 1.0 mL of suspension: 0.5 mL was injected i.p. and 0.5 mL was divided over 7 s.c. sites close to lymph nodes in the neck, paws, and lumbar regions ([24]). Animals were euthanized at least 4 weeks after sensitization.
as §1, §2

Where “and” joins values, the source holds several entries; their conditions need not be identical. Equal entries are not always repeated.

Chain of guinea pig β2AR (Q8K4Z4 whole entry): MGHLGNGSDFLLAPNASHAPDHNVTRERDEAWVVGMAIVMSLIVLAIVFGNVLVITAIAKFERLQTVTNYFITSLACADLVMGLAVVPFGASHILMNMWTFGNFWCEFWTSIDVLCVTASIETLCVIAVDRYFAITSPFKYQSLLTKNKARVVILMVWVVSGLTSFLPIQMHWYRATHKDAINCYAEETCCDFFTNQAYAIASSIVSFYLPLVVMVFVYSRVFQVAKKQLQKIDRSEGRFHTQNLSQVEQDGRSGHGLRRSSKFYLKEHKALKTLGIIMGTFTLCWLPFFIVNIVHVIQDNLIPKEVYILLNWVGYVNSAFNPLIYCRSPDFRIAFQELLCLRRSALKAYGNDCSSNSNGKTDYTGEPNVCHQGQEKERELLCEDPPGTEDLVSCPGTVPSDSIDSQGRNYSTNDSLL
Protocol for V133F mutant murine β2AR: (§3) Statistical analyses were performed using 1-way ANOVA, repeated (related) measures with Tukey’s posthoc test.
Protocol for WT murine β2AR: as §3

As to `COc1ccc(Sc2ccc(S(=O)(=O)N(C)C(C)C)cc2C(=O)N[C@H](CC(N)=O)Cc2ccc(C(C)(C)C)cc2)cc1` [Cmp6], the “MCh-induced airway constriction response (Figure 5D)” value with guinea pig lung slices (-Log [MCh] 6.5) is 84.9 and 96.3 and 94.4 and 89.0 and 84.3; in the data set with guinea pig lung slices (-Log [MCh] 7), 103.8 and 101.2 and 95.0 and 101.0 and 99.7; in the data set on guinea pig lung slices (-Log [MCh] 7.5) it was 104.7 and 102.5 and 101.8 and 96.6 and 103.6 and 102.8; with guinea pig lung slices (-Log [MCh] 8) it was 105.1 and 102.7 and 102.2 and 96.3 and 103.7 and 102.1.
In the case of `CC(C)NCC(O)c1ccc(O)c(O)c1` (stereo not shown) [ISO, isoproterenol, reference compound], the “125I-CYP binding (% of maximal)” value was -0.1438% and -0.4111% and -0.227% and -0.3498% on WT murine β2AR (log[ISO] -4 M); 2.592% and 1.529% and 1.507% and 1.987% at WT murine β2AR (log[ISO] -4.49485 M); 7.083% and 4.639% and 5.507% and 5.149% at WT murine β2AR (log[ISO] -5.09691 M); 19.715% and 17.6774% and 15.359% and 15.8985% on WT murine β2AR (log[ISO] -5.69897 M); 44.1973% and 39.2701% and 36.5787% and 38.852% on WT murine β2AR (log[ISO] -6.30103 M); 69.5556% and 67.7036% and 62.3553% and 65.7463% on WT murine β2AR (log[ISO] -6.90309 M). Further, the “125I-CYP binding (% of maximal)” value was 90.4216% and 85.9767% and 84.6762% and 89.3527% at WT murine β2AR (log[ISO] -7.50515 M); 98.0111% and 97.6178% and 94.6894% and 94.0001% at WT murine β2AR (log[ISO] -8.10721 M); 99.06% and 99.1113% and 98.9767% and 100.68% on WT murine β2AR (log[ISO] -8.70927 M); 98.5309% and 100.484% and 102.846% and 102.836% at WT murine β2AR (log[ISO] -9.31133 M); 103.967% and 101.665% and 101.826% and 99.0182% at WT murine β2AR (log[ISO] -9.91339 M); -0.1642% and -0.422% and -0.2235% and 0.05522% on V133F mutant murine β2AR (log[ISO] -4 M). Further, the “125I-CYP binding (% of maximal)” value is 1.355% and 1.539% and 1.229% and 0.6906% on V133F mutant murine β2AR (log[ISO] -4.49485 M); 4.785% and 4.497% and 3.5069% and 4.749% on V133F mutant murine β2AR (log[ISO] -5.09691 M); 14.8509% and 14.5905% and 12.5433% and 13.7771% on V133F mutant murine β2AR (log[ISO] -5.69897 M); 36.9962% and 34.2695% and 32.8754% and 34.2526% on V133F mutant murine β2AR (log[ISO] -6.30103 M); 66.198% and 62.9489% and 57.7767% and 62.1859% at V133F mutant murine β2AR (log[ISO] -6.90309 M); 86.6591% and 87.6539% and 79.9524% and 86.2876% on V133F mutant murine β2AR (log[ISO] -7.50515 M). Moreover, the “125I-CYP binding (% of maximal)” value at V133F mutant murine β2AR (log[ISO] -8.10721 M) is 96.9071% and 95.4546% and 94.0497% and 96.919%; on V133F mutant murine β2AR (log[ISO] -8.70927 M), 99.4994% and 99.6962% and 98.92% and 100.879%; at V133F mutant murine β2AR (log[ISO] -9.31133 M) it was 99.9887% and 99.7215% and 100.53% and 99.951%; at V133F mutant murine β2AR (log[ISO] -9.91339 M), 102.257% and 101.759% and 102.441% and 98.1746%. Moreover, the “125I-CYP binding, ISO competition curve (Figure 4B)” value at guinea pig β2AR (Log [ISO] (M) -4.49485) is 1.551 and 1.783 and 2.036 and 2.11 and 1.706; on guinea pig β2AR (Log [ISO] (M) -5.09691), 4.5383 and 7.032 and 7.563 and 7.078 and 5.303; at guinea pig β2AR (Log [ISO] (M) -5.69897), 13.7083 and 20.96 and 21.5014 and 20.9933 and 15.5868; on guinea pig β2AR (Log [ISO] (M) -6.90309), 63.0711 and 57.4939 and 78.0004 and 74.7226 and 70.0255; at guinea pig β2AR (Log [ISO] (M) -7.50515), 85.6262 and 93.2237 and 94.6971 and 93.7843 and 89.3743; on guinea pig β2AR (Log [ISO] (M) -8.10721), 99.3825 and 97.8919 and 98.1464 and 96.8121 and 98.8078. In addition, the “125I-CYP binding, ISO competition curve (Figure 4B)” value at guinea pig β2AR (Log [ISO] (M) -8.70927) is 98.4434 and 97.4234 and 99.4183 and 101.041 and 99.2113; at guinea pig β2AR (Log [ISO] (M) -9.31133), 100.682 and 98.3967 and 100.968 and 99.8594 and 99.9768; at guinea pig β2AR (Log [ISO] (M) -9.91339) it was 97.8042 and 98.3188 and 100.175 and 101.941 and 100.458.
As a reminder, the EC50 is the concentration needed to bring the measured effect to its halfway point. Take `CC(=O)OC(C)C[N+](C)(C)C` (stereo not shown) [Methacholine, methacholine]: the EC50 in the data set with guinea pig lung slices (Cavia porcellus, naive guinea pigs, no treatment, read-out: EC50 of airway constriction) worked out at 250 ± 60 nM.

B1: Ovalbumin: the allergen used in IgE-sensitized guinea pigs (protein, UniProt P01012 2-386, looked up)
Ovalbumin: GSIGAASMEFCFDVFKELKVHHANENIFYCPIAIMSALAMVYLGAKDSTRTQINKVVRFDKLPGFGDSIEAQCGTSVNVHSSLRDILNQITKPNDVYSFSLASRLYAEERYPILPEYLQCVKELYRGGLEPINFQTAADQARELINSWVESQTNGIIRNVLQPSSVDSQTAMVLVNAIVFKGLWEKAFKDEDTQAMPFRVTEQESKPVQMMYQIGLFRVASMASEKMKILELPFASGTMSMLVLLPDEVSGLEQLESIINFEKLTEWTSSNVMEERKIKVYLPRMKMEEKYNLTSVLMAMGITDVFSSSANLSGISSAESLKISQAVHAAHAEINEAGREVVGSAEAGVDAASVSEEFRADHPFLFCIKHIATNAVLFFGRCVSP
As for B1, in data set [1], the “EC50 of airway constriction” value worked out at 8.0 ± 2.4 ng/mL.
